Experiments:
Experiment in all cases: relative viability (nuclei count vs DMSO), 5 days (fraction); higher = more cells survive
IU1-47 + Dasatinib = compound: CC1=CC(=C(N1C2=CC=C(C=C2)Cl)C)C(=O)CN3CCCCC3 [IU1-47] + Cc1nc(Nc2ncc(C(=O)Nc3c(C)cccc3Cl)s2)cc(N2CCN(CCO)CC2)n1 [Dasatinib] (partner 0.075 µM)
Outline: (§1)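 Lung cancer cell lines in 1536-well plates got either a single drug or a fixed anchor-drug dose together with five library-drug doses (not always all listed) in √10 steps, by pin tool, on the day after seeding. Nuclei were counted after 5 days, and relative viability is the treated-to-vehicle ratio of nuclei counts. Values are medians of duplicate plates.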

FG-4592 + Trametinib = compound: Cc1nc(C(=O)NCC(=O)O)c(O)c2ccc(Oc3ccccc3)cc12 [FG-4592] + CC(=O)Nc1cccc(-n2c(=O)n(C3CC3)c(=O)c3c(Nc4ccc(I)cc4F)n(C)c(=O)c(C)c32)c1 [Trametinib] (partner 0.02 µM)
Outline: as §1

FG-4592 + Foretinib = compound: Cc1nc(C(=O)NCC(=O)O)c(O)c2ccc(Oc3ccccc3)cc12 [FG-4592] + COc1cc2c(Oc3ccc(NC(=O)C4(C(=O)Nc5ccc(F)cc5)CC4)cc3F)ccnc2cc1OCCCN1CCOCC1 [Foretinib] (partner 0.25 µM)
Outline: as §1

FG-4592 + Pictilisib = compound: Cc1nc(C(=O)NCC(=O)O)c(O)c2ccc(Oc3ccccc3)cc12 [FG-4592] + CS(=O)(=O)N1CCN(Cc2cc3nc(-c4cccc5[nH]ncc45)nc(N4CCOCC4)c3s2)CC1 [Pictilisib] (partner 1 µM)
Outline: as §1

Cell Line	relative viability (IU1-47 + Dasatinib; first compound 0.08 µM)	relative viability (IU1-47 + Dasatinib; first compound 0.253 µM)	relative viability (IU1-47 + Dasatinib; first compound 0.8 µM)	relative viability (IU1-47 + Dasatinib; first compound 2.53 µM)	relative viability (IU1-47 + Dasatinib; first compound 8 µM)	relative viability (FG-4592 + Trametinib; first compound 0.08 µM)	relative viability (FG-4592 + Trametinib; first compound 0.253 µM)	relative viability (FG-4592 + Trametinib; first compound 0.8 µM)	relative viability (FG-4592 + Trametinib; first compound 2.53 µM)	relative viability (FG-4592 + Trametinib; first compound 8 µM)	relative viability (FG-4592 + Foretinib; first compound 0.08 µM)	relative viability (FG-4592 + Foretinib; first compound 0.253 µM)	relative viability (FG-4592 + Foretinib; first compound 0.8 µM)	relative viability (FG-4592 + Foretinib; first compound 2.53 µM)	relative viability (FG-4592 + Foretinib; first compound 8 µM)	relative viability (FG-4592 + Pictilisib; first compound 0.08 µM)	relative viability (FG-4592 + Pictilisib; first compound 0.253 µM)	relative viability (FG-4592 + Pictilisib; first compound 0.8 µM)	relative viability (FG-4592 + Pictilisib; first compound 2.53 µM)	relative viability (FG-4592 + Pictilisib; first compound 8 µM)
ChaGo-K-1	0.524	0.557	0.707	0.643	0.544	0.953	0.79	0.899	0.846	0.931	0.997	0.834	0.919	0.973	0.897	0.769	0.714	0.452	0.791	0.544
COR-L 105	0.307	0.303	0.332	0.248	0.307	0.45	0.461	0.445	0.434	0.397	0.817	1.06	1.2	0.96	0.718	0.372	0.326	0.328	0.266	0.318
NCI-H1975	0.329	0.343	0.372	0.318	0.361	0.33	0.292	0.337	0.24	0.184	0.986	0.949	1.07	0.956	0.833	0.284	0.266	0.259	0.253	0.244
NCI-H1993	0.497	0.732	0.651	0.548	0.571	0.556	0.516	–	0.479	0.507	0.783	0.582	0.781	0.828	0.747	0.834	0.774	0.854	0.851	0.66
RERF-LC-KJ	0.926	0.947	0.817	0.877	0.781	0.841	0.848	0.763	0.876	0.857	0.853	0.868	0.817	0.888	0.771	0.476	0.539	0.552	0.574	0.477
NCI-H23	0.925	0.625	0.9	0.671	0.743	0.381	0.38	0.37	0.394	0.327	1.01	0.856	0.973	0.999	0.966	0.365	0.433	0.486	0.449	0.398
HCC-366	0.679	0.694	0.621	0.689	0.584	0.326	0.347	0.246	0.361	0.271	0.926	0.844	0.956	0.994	0.863	0.0934	0.104	0.23	0.151	0.113

Source: the supplement of paper PMC10307832
